Where two headings read alike, the source gives them in different places.
How the values were obtained:
[1] = system: latent HIV in resting memory CD4+ T cells isolated by leukapheresis from HIV+ donors on antiretroviral therapy; format: cell-based, HIV-1; conditions: 72 hrs
Source text: FIG. 41a. […] Resting memory CD4+ T cells isolated by leukapheresis from HIV+ donors on antiretroviral therapy were reactivated for 72 hrs using known LRAs including vorinostat (Vor) also known as suberanilohydroxamic acid, another hydroxamic acid panobinostat (Pan), and the depsipeptide Romidepsin (Rom) that are all HDACi, together with JQ1 (+) which is a thienotriazolodiazepine known to inhibit the BET family of bromodomain proteins including BRD2, BRD3, and BRD4, and compared with compounds according to the present invention DP#6 (Compound 41), DP#14 (Compound 7), and DP#16 (Compound 64).
FIG. 41c. […] Resting memory CD4+ T cells isolated by leukapheresis from HIV+ donors on antiretroviral therapy were reactivated for 72 hrs using known (vorinostat, Vor; panobinostat, Pan; romidepsin, Rom; and JQ1 (+)) and compounds according to the present invention (DP#6 (Compound 41), DP#14 (Compound 7), and DP#16 (Compound 64)).
FIG. 42c. […] Resting memory CD4+ T cells isolated by leukapheresis from HIV+ donors on antiretroviral therapy were reactivated for 72 hrs using known (JQ1 (+)) and compounds according to the present invention (DP#14 (Compound 7)) alone and in combination, and HIV-1 RNA detected through qPCR.
Total peripheral blood mononuclear cells (PBMC) were stored frozen in liquid nitrogen and prior to use, vials of frozen cells (0.5×10^8 PBMCs/vial or 1×10^8 PBMCs/vial) were quick thawed in a 42° C. water bath. Cells were promptly transferred to a 15 mL tube with 5 mL FBS dropwise then, then 6 mL of RF10 was added. Cells were pelleted at 300 g for 10 min at room temperature. Following aspiration, the cells were resuspended in RF10, pooled into a 50 mL tube which was topped up with RF10. PBMC were pelleted again at 300 g for 10 min at room temperature. Following aspiration, the cells were resuspended in PBS(−/−) and counted. CD4+ T cells were then isolated from 4×10^8 PBMCs that were pelleted and resuspended in PBS(−/−) at 1×10^7 cells/40 μL. 10 μL of CD4+ T cell Biotin-Antibody cocktail (Miltenyi Biotec) for every 1×10^7 cells was added and the mix refrigerated for 5 min. 30 μL of PBS(−/−) for every 1×10^7 cells was added, and 20 μL of the CD4+ T cell MicroBeads for every 1×10^7 cells was added and the mix refrigerated for 10 min. Unlabelled CD4+ T cells were then isolated by negative selection using magnetic separation. CD4+ T cells were then counted before being diluted to 4×10^6 cells/500 μL in RF10 for each condition and seeded into a 48 well plate.
Latent HIV was reactivated in the presence of the HIV integrase inhibitor Raltagravir (Ral) to prevent any further rounds of infection. Ral was made to [2 μM] in RF10+IL-2 (2 U/mL), and used to make 1 mL preparation of each drug up at [×2]. 500 μL of the [×2 Ral/IL-2/drug] was then added to the appropriate wells containing cells. Cells were transported to PC3 and incubated for 72 hrs.
Following reactivation, 800 μL of cell supernatant was transferred to labeled 1.5 mL screwcap tubes, pelletted at 800 g for 10 min then transferred to a second set of tubes and frozen for possible use at a later date. 800 μL of PBS(−/−) was added to each well to mix the cells and 50 μL of cells transferred to another set of tubes for live/dead staining and flow cytometry. Cells were pelleted at 400 g for 10 min, the media aspirated and cells resuspended in 100 μL of a [×1] APC-cy7 live/dead stain (Life technologies).

[2] = system: HIV-1 long terminal repeat (LTR)-driven luciferase reporter gene in FlipIn.FM HEK293 cells; test: cells; format: cell-based; conditions: for EC50: Human immunodeficiency virus 1, HEK293, HIV-LTR driven latent reporter, 11-point, 2-fold dilution series, highest concentration 40 μM, read-out: Latent reporter Av EC50; for fold change in HIV-1 gene expression over the unstimulated baseline: FlipIn.FM model, alone at 10 μM and in combination, 48 hrs post treatment
Protocol: FIG. 44. […] The FlipIn.FM model of HIV-1 latency was treated with JQ1 (+) and DP#14 (Compound 7) alone at 10 μM and in combination, and the HIV-1 gene expression measured 48 hrs post treatment. Error bars represent standard deviation of n=3 experiments. OPTI represents media alone, without DP#14.
FIG. 46. […] The FlipIn.FM model of HIV-1 latency was treated with PFI-1 and DP#14 alone at 10 μM and in combination, and the HIV-1 gene expression measured 48 hrs post treatment. Error bars represent standard deviation of n=3 experiments. OPTI represents media alone, without DP#14.
Explicitly, HEK293 derived FlipIn-FM and FlipIn-RV dual reporter cells each include a single stable HIV-1 long terminal repeat (LTR)-driven luciferase reporter genes, with a second complimentary non-HIV (off-target) luciferase reporter. These cell lines model post integration latency and read-through transcription by expressing a low level of HIV-1 Tat protein via a native Internal Ribosome Entry Site (IRES) found within Tat, from a chimeric cellular-tat gene cassette. FlipIn-FM and FlipIn-RV clones were chosen for low basal levels of LTR activity and high responsiveness to Tat as well as many Latency Reversing Agents (LRAs).
The dual reporter cell lines contain three stably integrated constructs that together allow for detection of novel LRAs, capable of potent and specific HIV reactivation. The FlipIn.FM line contains a proviral LTR-driven nef/CBR reporter fusion gene, allowing for detection of viral gene expression. A second CMV-driven CBG luciferase reporter allows for detection of off target drug effects, including non-specific activation and drug toxicity. The third construct contains the first coding exon of HIV-1 tat, within human Growth Hormone (hGH) as a chimeric gene, expressing HIV-1 Tat protein from an IRES mechanism that underlies the tat exon. This construct models read-through transcription and the low level of Tat protein expression that occurs during post integration latency. The counter screening reverse cell line, FlipIn.RV, contains the same three components with the Click Beetle Luciferase genes in the opposite orientation (LTR-CBG and CMV-CBR) for counter screening.
Compounds were evaluated in an 11-point titration using normal CMV-CBG/LTR-CBR reporter cell line and an 11 point reverse CMV-CBR/LTR-CBG reporter cell line.
The FlipIn cell lines were therefore designed with a dual purpose, to detect novel compounds that reactivate HIV-1 and to also screen out compounds that behaved in a largely non-specific manner. To achieve the latter, the cell lines contain an “off target” reporter gene construct, driven by the unrelated CMV-IE promoter, that allows for the detection of drug mediated off target effects including global gene activation as well as possible toxicity.
The HIV-LTR driven latent reporter gene identifies the HIV-specific activation, and the term “global reporter” is interchangeable with “off target reporter” and refers to the unrelated CMV-IE promoter driven reporter gene, which is used as a surrogate for global gene activation. […] The highest concentration tested here was 40 μM.

[3] = system: HIV-1 gene expression in J.Lat10.6 latently infected T-cell line; test: cells; format: cell-based; conditions: for IC50: Human immunodeficiency virus 1, J-Lat 10.6, 48 h, read-out: IC50 for reactivation of HIV-1 gene expression; for percent of the cells treated with reactivated HIV-1 gene expression: J.Lat10.6 model, alone at 10 μM and in combination, 48 hrs post treatment
Protocol: The J.Lat10.6 latently infected T-cell line was treated with 4 compounds of the present invention, DP#6 (Compound 41), DP#14 (Compound 7), DP#18 (Compound 65), and DP#19 (Compound 73) and reactivated for 48 hrs. HIV-1 reactivation was measured by flowcytometry for GFP expression. Error bars represent standard deviation of n=3 experiments.
FIG. 45. […] The J.Lat10.6 model of HIV-1 latency was treated with JQ1 (+) and DP#14 (Compound 7) alone at 10 μM and in combination, and the HIV-1 gene expression measured 48 hrs post treatment. Error bars represent standard deviation of n=3 experiments. OPTI represents media alone, without DP#14.
FIG. 47. […] The J.Lat10.6 model of HIV-1 latency was treated with PFI-1 and DP#14 alone at 10 μM and in combination, and the HIV-1 gene expression measured 48 hrs post treatment. Error bars represent standard deviation of n=3 experiments. OPTI represents media alone, without DP#14.
Compounds were also evaluated in a dose ranging titration with HIV latently infected cell lines (J.Lat 6.3 and 10.6). The specificity of the selected compounds in these cell line models, were measured by inserting a CMV-DS.Red reporter into these cells to co-ordinately measure HIV specific LTR-Green fluorescent protein and non-specific DS.Red expression during FACS analysis.
The J.Lat model of HIV-1 latency is a well-established model used widely and is described in detail in the following paper:
HIV reproducibly establishes a latent infection after acute infection of T cells in vitro, Eric Verdin et al, The EMBO Journal Vol. 22 No. 8 pp 1868-1877, 2003

J.Lat10.6 T-cell line = test: Dose dependent toxicity in the J.Lat model; format: cell-based; conditions: for concentration above which notable toxicity: dose dependent toxic effect
[4] = normalized between unstimulated baseline and PMA positive control as 100%, concentration not given

| Structure (SMILES) | induction of HIV-1 gene expression, % of the normalized value [1, 4] [%] | EC50 [2] [µM] | IC50 [3] [µM] | also measured |
| --- | --- | --- | --- | --- |
| O=C(CCCCCCC(=O)Nc1ccccc1)NO [Vorinostat, suberanilohydroxamic acid, reference compound] | 58 |  |  |  |
| Cc1cnc(NC(=O)CCCOc2ccccc2)s1 [Compound 41] |  | 14 | ~16.5 | dose dependent toxicity (J.Lat10.6 T-cell line; dosed as high as 40 μM): no such toxicity; induction of HIV-1 gene expression, % of the normalized value ([1]; at 5 μM, normalized between unstimulated baseline and PMA as 100%): 25% |
| C/C=C1\NC(=O)[C@H]2CSSCC/C=C/[C@H](CC(=O)N[C@H](C(C)C)C(=O)N2)OC(=O)[C@H](C(C)C)NC1=O [Romidepsin, reference compound] | 67 |  |  |  |
| Cc1cnc(NC(=O)N2CCN(c3cnc(Cl)c(Cl)c3)CC2)s1 [Compound 73] |  | 0.28 | < 0.11 | concentration above which notable toxicity (J.Lat10.6 T-cell line): > 0.156 µM |
| Cc1ccc(N2CCN(C(=O)Nc3ncc(Cl)s3)CC2)cc1Cl [Compound 64] |  | 0.22 |  | activation of HIV-1 gene expression in leukapheresis samples ([1]; at 100 nM, n=4 or n=5 donors): activation in only one patient |
| Cc1ccc(N2CCN(C(=O)Nc3ncc(C#N)s3)CC2)cc1Cl [Compound 65] |  | 0.33 | 0.65 | concentration above which notable toxicity (J.Lat10.6 T-cell line): above 1.25 μM |
| Cc1sc2c(c1C)C(c1ccc(Cl)cc1)=N[C@@H](CC(=O)OC(C)(C)C)c1nnc(C)n1-2 [JQ1 (+), reference compound] | 39 |  |  | fold change in HIV-1 gene expression over the unstimulated baseline [2]: 12.8 fold; percent of the cells treated with reactivated HIV-1 gene expression [3]: 22.8% |
| COc1ccccc1S(=O)(=O)Nc1ccc2c(c1)CN(C)C(=O)N2 [PFI-1, reference compound] |  |  |  | fold change in HIV-1 gene expression over the unstimulated baseline [2]: 3.6 fold; percent of the cells treated with reactivated HIV-1 gene expression [3]: 20.6% |
| Cc1[nH]c2ccccc2c1CCNCc1ccc(/C=C/C(=O)NO)cc1 [Panabinostat, reference compound] | 57 |  |  |  |
